According to PubChem BioAssay (NCI):
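Results reflect a 48-hour exposure of cells in 96-well plates to compound at five concentrations. GI50: concentration for 50% inhibition of growth. TGI denotes the concentration required for complete inhibition of growth.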

Assays:
Assay in all cases: DTP human tumour cell line panel, 48 h
786-0 renal = test system: 786-0 renal
A498 renal = test system: A498 renal
A549 NSCLC = test system: A549 NSCLC
ACHN renal = test system: ACHN renal
BT-549 breast = test system: BT-549 breast
CAKI-1 renal = test system: CAKI-1 renal
CCRF-CEM leukemia = test system: CCRF-CEM leukemia
COLO 205 colon = test system: COLO 205 colon
DU-145 prostate = test system: DU-145 prostate
EKVX NSCLC = test system: EKVX NSCLC
HCC-2998 colon = test system: HCC-2998 colon
HCT-116 colon = test system: HCT-116 colon
HCT-15 colon = test system: HCT-15 colon
HL-60(TB) leukemia = test system: HL-60(TB) leukemia
HOP-62 NSCLC = test system: HOP-62 NSCLC
HOP-92 NSCLC = test system: HOP-92 NSCLC
HS 578T breast = test system: HS 578T breast
HT29 colon = test system: HT29 colon
IGROV1 ovarian = test system: IGROV1 ovarian
K-562 leukemia = test system: K-562 leukemia
KM12 colon = test system: KM12 colon
LOX IMVI melanoma = test system: LOX IMVI melanoma
M14 melanoma = test system: M14 melanoma
MALME-3M melanoma = test system: MALME-3M melanoma
MCF7 breast = test system: MCF7 breast
MDA-MB-231 breast = test system: MDA-MB-231 breast
MDA-MB-435 = test system: MDA-MB-435
MOLT-4 leukemia = test system: MOLT-4 leukemia
NCI-H226 lung = test system: NCI-H226 lung
NCI-H23 lung = test system: NCI-H23 lung
NCI-H460 lung = test system: NCI-H460 lung
NCI-H522 lung = test system: NCI-H522 lung
NCI/ADR-RES ovarian = test system: NCI/ADR-RES ovarian
OVCAR-4 ovarian = test system: OVCAR-4 ovarian
OVCAR-5 ovarian = test system: OVCAR-5 ovarian
OVCAR-8 ovarian = test system: OVCAR-8 ovarian
PC-3 prostate = test system: PC-3 prostate
RPMI-8226 leukemia = test system: RPMI-8226 leukemia
RXF 393 renal = test system: RXF 393 renal
SF-268 CNS = test system: SF-268 CNS
SF-295 CNS = test system: SF-295 CNS
SF-539 CNS = test system: SF-539 CNS
SK-MEL-2 melanoma = test system: SK-MEL-2 melanoma
SK-MEL-28 melanoma = test system: SK-MEL-28 melanoma
SK-MEL-5 melanoma = test system: SK-MEL-5 melanoma
SK-OV-3 ovarian = test system: SK-OV-3 ovarian
SN12C renal = test system: SN12C renal
SNB-19 CNS = test system: SNB-19 CNS
SNB-75 CNS = test system: SNB-75 CNS
SR leukemia = test system: SR leukemia
SW-620 colon = test system: SW-620 colon
T-47D breast = test system: T-47D breast
TK-10 renal = test system: TK-10 renal
U251 CNS = test system: U251 CNS
UACC-257 melanoma = test system: UACC-257 melanoma
UACC-62 melanoma = test system: UACC-62 melanoma
UO-31 renal = test system: UO-31 renal

CCCCCc1ccc(S(=O)(=O)Nc2cc(-c3csc(NC(=O)CN4CCN(C)CC4)n3)ccc2N2CCN(C)CC2)cc1
GI50 (786-0 renal): 826 nM | TGI (786-0 renal): 1570 nM | GI50 (A498 renal): 2900 nM | TGI (A498 renal): 9030 nM | GI50 (A549 NSCLC): 1250 nM | TGI (A549 NSCLC): 3720 nM | GI50 (ACHN renal): 1140 nM | TGI (ACHN renal): 2640 nM | GI50 (BT-549 breast): 4070 nM | TGI (BT-549 breast): 11100 nM | GI50 (CAKI-1 renal): 895 nM | TGI (CAKI-1 renal): 1970 nM | GI50 (CCRF-CEM leukemia): 792 nM | TGI (CCRF-CEM leukemia): 3380 nM | GI50 (COLO 205 colon): 924 nM | TGI (COLO 205 colon): 1860 nM | GI50 (DU-145 prostate): 1520 nM | TGI (DU-145 prostate): 4640 nM | GI50 (EKVX NSCLC): 1970 nM | TGI (EKVX NSCLC): 7470 nM | GI50 (HCC-2998 colon): 877 nM | TGI (HCC-2998 colon): 1780 nM | GI50 (HCT-116 colon): 735 nM | TGI (HCT-116 colon): 1490 nM | GI50 (HCT-15 colon): 733 nM | TGI (HCT-15 colon): 1620 nM | GI50 (HL-60(TB) leukemia): 1000 nM | TGI (HL-60(TB) leukemia): 2350 nM | GI50 (HOP-62 NSCLC): 954 nM | TGI (HOP-62 NSCLC): 1990 nM | GI50 (HOP-92 NSCLC): 909 nM | TGI (HOP-92 NSCLC): 3410 nM | GI50 (HS 578T breast): 1050 nM | TGI (HS 578T breast): 2420 nM | GI50 (HT29 colon): 872 nM | TGI (HT29 colon): 1810 nM | GI50 (IGROV1 ovarian): 1120 nM | TGI (IGROV1 ovarian): 2610 nM | GI50 (K-562 leukemia): 166 nM | TGI (K-562 leukemia): 5530 nM | GI50 (KM12 colon): 1160 nM | TGI (KM12 colon): 2670 nM | GI50 (LOX IMVI melanoma): 842 nM | TGI (LOX IMVI melanoma): 1610 nM | GI50 (M14 melanoma): 895 nM | TGI (M14 melanoma): 1710 nM | GI50 (MALME-3M melanoma): 879 nM | TGI (MALME-3M melanoma): 1670 nM | GI50 (MCF7 breast): 893 nM | TGI (MCF7 breast): 1840 nM | GI50 (MDA-MB-231 breast): 913 nM | TGI (MDA-MB-231 breast): 1830 nM | GI50 (MDA-MB-435): 910 nM | TGI (MDA-MB-435): 1760 nM | GI50 (MOLT-4 leukemia): 1120 nM | TGI (MOLT-4 leukemia): 3740 nM | GI50 (NCI-H226 lung): 3000 nM | TGI (NCI-H226 lung): 9350 nM | GI50 (NCI-H23 lung): 1400 nM | TGI (NCI-H23 lung): 4370 nM | GI50 (NCI-H460 lung): 966 nM | TGI (NCI-H460 lung): 1860 nM | GI50 (NCI-H522 lung): 909 nM | TGI (NCI-H522 lung): 1720 nM | GI50 (NCI/ADR-RES ovarian): 1380 nM | TGI (NCI/ADR-RES ovarian): 3960 nM | GI50 (OVCAR-4 ovarian): 1010 nM | TGI (OVCAR-4 ovarian): 2340 nM | GI50 (OVCAR-5 ovarian): 1250 nM | TGI (OVCAR-5 ovarian): 3310 nM | GI50 (OVCAR-8 ovarian): 966 nM | TGI (OVCAR-8 ovarian): 1950 nM | GI50 (PC-3 prostate): 1200 nM | TGI (PC-3 prostate): 3490 nM | GI50 (RPMI-8226 leukemia): 1030 nM | TGI (RPMI-8226 leukemia): 2660 nM | GI50 (RXF 393 renal): 792 nM | TGI (RXF 393 renal): 1590 nM | GI50 (SF-268 CNS): 941 nM | TGI (SF-268 CNS): 2010 nM | GI50 (SF-295 CNS): 956 nM | TGI (SF-295 CNS): 1930 nM | GI50 (SF-539 CNS): 860 nM | TGI (SF-539 CNS): 1620 nM | GI50 (SK-MEL-2 melanoma): 853 nM | TGI (SK-MEL-2 melanoma): 1610 nM | GI50 (SK-MEL-28 melanoma): 926 nM | TGI (SK-MEL-28 melanoma): 1690 nM | GI50 (SK-MEL-5 melanoma): 900 nM | TGI (SK-MEL-5 melanoma): 1640 nM | GI50 (SK-OV-3 ovarian): 1110 nM | TGI (SK-OV-3 ovarian): 2670 nM | GI50 (SN12C renal): 1060 nM | TGI (SN12C renal): 2370 nM | GI50 (SNB-19 CNS): 1380 nM | TGI (SNB-19 CNS): 4110 nM | GI50 (SNB-75 CNS): 2110 nM | TGI (SNB-75 CNS): 4480 nM | GI50 (SR leukemia): 173 nM | TGI (SR leukemia): 930 nM | GI50 (SW-620 colon): 853 nM | TGI (SW-620 colon): 1640 nM | GI50 (T-47D breast): 829 nM | TGI (T-47D breast): 1620 nM | GI50 (TK-10 renal): 2920 nM | TGI (TK-10 renal): 7140 nM | GI50 (U251 CNS): 834 nM | TGI (U251 CNS): 1650 nM | GI50 (UACC-257 melanoma): 909 nM | TGI (UACC-257 melanoma): 1710 nM | GI50 (UACC-62 melanoma): 912 nM | TGI (UACC-62 melanoma): 1740 nM | GI50 (UO-31 renal): 818 nM | TGI (UO-31 renal): 1670 nM
